Columns and labels:
[1] = test system: A549; assay: Cytotoxicity against human A549 cells assessed as cell viability after 72 hrs by SRB assay; format: functional, cell-based; details: A549, 72 h
[2] = test system: HCT-116; assay: Cytotoxicity against human HCT116 cells assessed as cell viability after 72 hrs by SRB assay; format: functional, cell-based; details: HCT-116, 72 h
[3] = test system: A549; assay: Selectivity ratio of IC50 for human A549 cells to IC50 for human HCT116 cells; format: functional
[4] = test system: BALB/3T3; assay: Cytotoxicity against mouse BALB/3T3 cells assessed as cell viability after 72 hrs by SRB assay; format: cell-based; details: BALB/3T3, 72 h
[5] = test system: MV4-11; assay: Cytotoxicity against human MV4-11 cells assessed as cell viability after 72 hrs by MTT assay; format: functional, cell-based; details: MV4-11, 72 h
[6] = test system: HCT-116; assay: Selectivity ratio of IC50 for human MV4-11 cells to IC50 for human HCT116 cells; format: functional
[7] = test system: Salmonidae; assay: Binding affinity to Salmon fish sperm DNA by UV-visible spectroscopy

K [7]	Structure (SMILES)	IC50 [1]	IC50 [2]	Ratio IC50 [3]	IC50 [4]	IC50 [5]	Ratio IC50 [6]
–	OCCCNc1nc2ccccc2c2[nH]c3ccccc3c12	2210 nM	260 nM	7	860 nM	380 nM	–
–	Cn1c2ccccc2c2c(NCC(C)(C)CN)nc3ccccc3c21	540 nM	130 nM	–	700 nM	150 nM	–
–	Cn1c2ccccc2c2c(NCC(C)(C)CN)nc3ccc(Cl)cc3c21	–	–	–	–	560 nM	–
–	CCN(CC)CCCC(C)Nc1nc2ccc(Cl)cc2c2c1c1ccccc1n2C (configuration not stated)	–	–	–	–	570 nM	–
–	c1ccc(CNc2nc3ccccc3c3[nH]c4ccccc4c23)cc1	1990 nM	1460 nM	–	8040 nM	770 nM	–
–	c1ccc2c(c1)nc(N1CCCNCC1)c1c3ccccc3[nH]c21	2460 nM	1730 nM	–	10100 nM	850 nM	–
–	NCCCN1CCN(CCCNc2nc3ccccc3c3[nH]c4ccccc4c23)CC1	760 nM	980 nM	–	1150 nM	390 nM	–
–	NCCCNc1nc2ccc([N+](=O)[O-])cc2c2[nH]c3ccccc3c12	350 nM	100 nM	–	360 nM	150 nM	–
–	CN1CCCN(c2nc3ccccc3c3c2c2ccccc2n3C)CC1	–	–	–	–	960 nM	–
–	c1ccc(Nc2nc3ccccc3c3[nH]c4ccccc4c23)cc1	–	–	–	–	8370 nM	–
–	Clc1nc2ccccc2c2[nH]c3ccccc3c12	–	–	–	–	9140 nM	–
–	Cn1c2ccccc2c2c(NCCCN)nc3ccc([N+](=O)[O-])cc3c21	110 nM	10 nM	–	80 nM	50 nM	–
–	COc1ccc2nc(NCCCN)c3c4ccccc4[nH]c3c2c1	160 nM	70 nM	–	310 nM	120 nM	8
–	Cn1c2ccccc2c2c(NCCCN)nc3ccccc3c21	180 nM	60 nM	–	950 nM	110 nM	–
1.05 ×10⁶ L/mol	CN(C)CCCNc1nc2ccccc2c2[nH]c3ccccc3c12	870 nM	550 nM	–	1180 nM	410 nM	–
–	COc1ccc2nc(NCCCN)c3c4ccccc4n(C)c3c2c1	110 nM	10 nM	–	100 nM	100 nM	–
–	CCN(CC)CCCC(C)Nc1nc2ccccc2c2c1c1ccccc1n2C (configuration not stated)	110 nM	50 nM	–	500 nM	70 nM	–
–	CN1CCCN(c2nc3ccccc3c3[nH]c4ccccc4c23)CC1	1970 nM	1650 nM	–	8960 nM	740 nM	–
–	NCCCNc1nc2ccc(Cl)cc2c2[nH]c3ccccc3c12	–	–	–	–	560 nM	–
4.84 ×10⁶ L/mol	CN(C)CCCNc1nc2ccc(Cl)cc2c2c1c1ccccc1n2C	570 nM	100 nM	–	820 nM	80 nM	–
–	NCCCNc1nc2ccc(F)cc2c2[nH]c3ccccc3c12	–	–	–	–	590 nM	–
–	Cn1c2ccccc2c2c(NCCCN)nc3ccc(Cl)cc3c21	730 nM	110 nM	–	940 nM	120 nM	–

K [7]	Structure (SMILES)	IC50 [1]	IC50 [2]	Ratio IC50 [3]	IC50 [4]	IC50 [5]	Ratio IC50 [6]
–	NCCCNc1nc2cccc(Br)c2c2[nH]c3ccccc3c12	–	–	–	–	600 nM	–
–	c1ccc2c(c1)nc(N1CCOCC1)c1c3ccccc3[nH]c21	–	–	–	–	9430 nM	–
–	CC(CN)CNc1nc2ccc(Cl)cc2c2[nH]c3ccccc3c12 (configuration not stated)	–	–	–	–	620 nM	–
–	CC(C)(CN)CNc1nc2ccc(Cl)cc2c2[nH]c3ccccc3c12	–	–	–	–	590 nM	–
–	Cn1c2ccccc2c2c(NCCCN)nc3ccc(Br)cc3c21	–	–	–	–	430 nM	–
–	OCCNc1nc2ccccc2c2[nH]c3ccccc3c12	1450 nM	190 nM	7	830 nM	440 nM	–
–	CN(C)CCCNc1nc2ccccc2c2c1c1ccccc1n2C	140 nM	200 nM	–	780 nM	140 nM	–
–	NCCCCNc1nc2ccccc2c2[nH]c3ccccc3c12	1160 nM	1060 nM	–	1140 nM	700 nM	–
–	Cn1c2ccccc2c2c(NCCCNC(=O)Nc3ccccc3)nc3ccccc3c21	1190 nM	820 nM	–	6110 nM	570 nM	–
–	Cc1ccc2nc(NCCCN)c3c4ccccc4n(C)c3c2c1	140 nM	70 nM	–	420 nM	90 nM	–
–	NCCCCCCNc1nc2ccccc2c2[nH]c3ccccc3c12	1060 nM	1080 nM	–	1070 nM	710 nM	–
–	NCCCNc1nc2ccc(Br)cc2c2[nH]c3ccccc3c12	–	–	–	–	650 nM	–
–	Cn1c2ccccc2c2c(NCCCN)nc3ccc(F)cc3c21	250 nM	110 nM	–	980 nM	170 nM	–
–	Cn1c2ccccc2c2c(NCC(C)(C)CN)nc3ccc(Br)cc3c21	–	–	–	–	500 nM	–
–	CN(C)CCCNc1nc2ccc(Br)cc2c2c1c1ccccc1n2C	–	–	–	–	390 nM	–
–	NCCCCCNc1nc2ccccc2c2[nH]c3ccccc3c12	1050 nM	1060 nM	–	1010 nM	610 nM	–
–	COc1ccc(Nc2nc3ccccc3c3[nH]c4ccccc4c23)c(OC)c1	–	–	–	–	7280 nM	–
–	Cn1c2ccccc2c2c(Cl)nc3ccccc3c21	–	–	–	–	16600 nM	–
–	NCCCNc1nc2ccccc2c2[nH]c3ccccc3c12	170 nM	260 nM	–	1050 nM	120 nM	–
–	Cc1ccc2nc(NCCCN)c3c4ccccc4[nH]c3c2c1	210 nM	80 nM	–	920 nM	140 nM	8
–	c1ccc2c(c1)nc(NCC1CCCO1)c1c3ccccc3[nH]c21 (configuration not stated)	1400 nM	1280 nM	–	3040 nM	750 nM	–

Reference: ChEMBL document CHEMBL3232753, “Synthesis and in vitro cytotoxic effect of 6-amino-substituted 11H- and 11Me-indolo[3,2-c]quinolines” (Eur J Med Chem, 2014)
